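All cell lines were grown in 96-well plates and treated with compound for 48 hours. Here, GI50 denotes the concentration required for 50% inhibition of growth.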 Active and inactive are the calls of the source. No stated cut-off is given here; in the data, active = GI50 up to about 1.1 µM and inactive = higher.
Legend:
Experiment in all cases: growth of human tumour cells (NCI), 48 h
[1] = test system: DMS-273
[2] = test system: CCRF-CEM
[3] = test system: SF-268
[4] = test system: A549
[5] = test system: HT-29
[6] = test system: RXF 631
[7] = test system: XF498
[8] = test system: CAKI-1
[9] = test system: OVCAR-3
[10] = test system: SK-OV-3
[11] = test system: DMS-114
[12] = test system: LOX IMVI
[13] = test system: SF-295
[14] = test system: KM12
[15] = test system: 786-0
[16] = test system: SK-MEL-28
[17] = test system: NCI-H226
[18] = test system: M14
[19] = test system: SR
[20] = test system: ACHN
[21] = test system: HOP-62
[22] = test system: HCC 2998
[23] = test system: K562
[24] = test system: MOLT-4
[25] = test system: SNB-75
[26] = test system: U-251
[27] = test system: RPMI-8226
[28] = test system: HCT-116
[29] = test system: IGROV-1
[30] = test system: DLD-1
[31] = test system: UACC-257
[32] = test system: NCI-H23
[33] = test system: SN12C
[34] = test system: COLO 205
[35] = test system: SF-539
[36] = test system: NCI-H522
[37] = test system: OVCAR-8
[38] = test system: SNB-78
[39] = test system: M19-MEL
[40] = test system: RXF 393
[41] = test system: HOP-92
[42] = test system: Malme-3M
[43] = test system: UO-31
[44] = test system: HL-60
[45] = test system: LXFL 529
[46] = test system: NCI-H460
[47] = test system: OVCAR-5
[48] = test system: UACC-62
[49] = test system: OVCAR-4
[50] = test system: SNB-19
[51] = test system: SK-MEL-5
[52] = test system: SW-620
[53] = test system: KM-20L2
[54] = test system: HCT-15
[55] = test system: EKVX
[56] = test system: SK-MEL-2
[57] = test system: A498
[58] = test system: TK-10
[59] = test system: HOP-18

Measured: GI50

CC(O)c1ccc(C(O)/C(=N\NC(=O)c2ccncc2)c2nc3ccc([N+](=O)[O-])cc3nc2O)cc1 (centres undefined)
inactive: [1] 83.8 µM | [2] > 100 µM | [3] > 100 µM | [4] > 100 µM | [5] 96.2 µM | [6] > 100 µM | [7] > 100 µM | [8] 52.8 µM | [9] > 100 µM | [10] > 100 µM | [11] 16.7 µM | [12] 30 µM | [13] > 100 µM | [14] 49 µM | [15] > 100 µM | [16] > 100 µM | [17] > 100 µM | [18] > 100 µM | [19] 75 µM | [20] 42.4 µM | [21] > 100 µM | [22] 75.2 µM | [23] 40.8 µM | [24] > 100 µM | [25] > 100 µM | [26] > 100 µM | [27] > 100 µM | [28] > 100 µM | [29] > 100 µM | [30] > 100 µM | [31] > 100 µM | [32] > 100 µM | [33] > 100 µM | [34] > 100 µM | [35] 37 µM | [36] 19.8 µM | [37] > 100 µM | [38] > 100 µM | [39] > 100 µM | [40] > 100 µM | [41] > 100 µM | [42] > 100 µM | [43] > 100 µM | [44] 50.5 µM | [45] 54.6 µM | [46] > 100 µM | [47] > 100 µM | [48] 59.2 µM | [49] > 100 µM | [50] > 100 µM | [51] > 100 µM | [52] > 100 µM | [53] 33.3 µM
34.8 µM: [54]

COS(=O)c1cc(Cl)cc(Cl)c1OC(=O)CSSCC(=O)Oc1c(Cl)cc(Cl)cc1S(=O)OC (centres undefined)
inactive: [1] 12.4 µM | [2] 19.6 µM | [3] 7.26 µM | [4] 13.2 µM | [5] 30.4 µM | [6] 20.3 µM | [8] 26.6 µM | [55] 20 µM | [9] 23.9 µM | [10] 51.3 µM | [56] 17.3 µM | [57] 15.5 µM | [11] 15.8 µM | [12] 16 µM | [13] 19.5 µM | [14] 14.8 µM | [15] 22.4 µM | [16] 12.4 µM | [18] 18.8 µM | [20] 21 µM | [58] 34.5 µM | [21] > 10 µM | [59] 21.6 µM | [22] 21.6 µM | [23] 20.4 µM | [24] 17.1 µM | [25] 24.7 µM | [26] 5.92 µM | [27] 12.5 µM | [29] 19.4 µM | [30] 15.3 µM | [31] 23.2 µM | [32] 11.2 µM | [33] 10.2 µM | [34] 22.6 µM | [35] 13.8 µM | [36] 14.2 µM | [37] 20.5 µM | [38] 22.9 µM | [39] 20 µM | [40] 15.3 µM | [41] 22.4 µM | [42] 15.2 µM | [43] 13.2 µM | [44] 22.4 µM | [45] 21 µM | [46] 8.69 µM | [47] 16.7 µM | [48] 6.97 µM | [49] 19.3 µM | [50] 5.24 µM | [51] 17.4 µM | [52] 28.4 µM | [53] 27.3 µM
14.4 µM: [54]
